In experiment [1] the test system is P. falciparum induced endothelial permeability of HLEC monolayer. Kind of experiment: Endothelial barrier integrity assay (Evans Blue diffusion through HLEC monolayer). The experiment is classed as cell-based, human. As for the experimental part: In order to measure the effect of treatments on pre-exposed pRBCs endothelial cells, we developed a method based on Evans Blue diffusion through endothelial monolayer. Briefly HLEC were raised on Transwell Permeable supports (polyester membrane, 3 μm pore size, 6.5 mm diameter, Corning Incorporated Life Sciences) until confluence in M199 medium. Mature forms of 3D7 P. falciparum clone were then harvested from culture and adjusted at 1% of hematocrit and 50% of parasitemia before 4 hours co-incubation at 37° C. 5% CO2. After PRBC exposure, endothelial cell monolayers were treated 20 hours with Fasudil (1 μM or 30 μM). […] Lower compartments were finally collected for optical density analysis at 630 nm of diffused Evans Blue, using a standard microtiter plate reader (Bio-Tek™ EL311SX, Instruments Inc).
Briefly, P. falciparum cytoadherence effect on endothelial barrier function was assessed by culturing HLEC in Transwell inserts until confluence before exposing them 4 hours to mature forms of pRBC as above. The quantity of Evans Blue collected in lower compartments was markedly higher in pRBC/HLEC co-incubation conditions than in control RBC/HLEC (p<0.01) or non-exposed endothelial cell conditions (p<0.01). […]
Briefly, HLEC were cultured in Transwell inserts until confluence. […] Endothelial barrier integrity was assessed as described above.

The test system of experiment [2] is RhoA/Rho-kinase pathway. Kind of experiment: G-LISA RhoA/Rho-kinase pathway activation assay in HLEC co-incubated with P. falciparum pRBC. The experiment is classed as cell-based, human. The note with it: Fasudil 30 μM, 24 hours pRBC-contact co-incubation with HLEC, compared to pRBC alone, p<0.05 (FIG. 2). As for the experimental part:
Activity of RhoA and its downstream effector Rho-kinase was assessed using G-LISA™ RhoA Activation Assay Biochem Kit purchased from Cytoskeleton (Denver, Colo.). The principle of the assay is to determine the amount of active GTP-bound RhoA extracted from cultured cells with a Rho-GTP-binding protein coated 96-well plate and final detection with immunoreagents. Briefly, HLEC were cultured in 6-well plates until 50-70% confluence as recommended by the manufacturer and exposed to P. falciparum infected erythrocytes or non infected erythrocytes at 1% of hematocrit and 50% of parasitemia. When used, Fasudil was added concomitantly with parasites at 30 μM. After 24 hours of incubation cells were washed and ice-cold lysed in phosphate buffer saline containing protease inhibitors. Cell lysates were then clarified by centrifugation at 4° C. 10,000 rpm for 2 min before measurement of protein concentrations. Cell extracts were equalized with lysis buffer to give identical protein concentrations before incubation in Rho-GTP affinity plate for 30 min at 4° C. […]
Briefly, RhoA activity in HLEC co-incubated during 24 hours with P. falciparum infected red blood cells (pRBC) or non infected red blood cells (RBC) was measured using the G-LISA™ RhoA activation kit (Cytoskeleton, Denver Colo.) as described in the Materials and Methods section.

The test system of experiment [3] is P. falciparum-induced apoptosis of human lung endothelial cells (HLEC). Briefly: APOPercentage quantitative apoptosis assay, pRBC/HLEC co-incubation. The class given is cell-based. The following applies: 24 hours pRBC exposure, purple dye pixel number (FIG. 4). As to the method:
Endothelial apoptosis was quantitatively assessed using APOPercentage™ dye purchased from Biocolor Ltd. (Belfast, Northern Ireland). The assay uses a purple-red colour dye that is selectively incorporated into apoptotic but not necrotic cells. Unilateral uptake of the dye occurs through phosphatidylserines of the outer membrane of cells that undergo apoptosis. Endothelial cells were cultured in 6-well plates until confluence before exposure to P. falciparum infected erythrocytes during 24 hours. HLEC were incubated for 1 hour with the Apopercentage dye (1/20) before co-incubation time is reached and delicately washed 3 times with PBS. Apoptosis was then quantified by Analytical Digital Photomicroscopy (ADP): for each experiment 4 representative fields of each well of cell cultures were photographed using inverted phase contrast microscope coupled with a digital camera. Images were then transferred to a computer and the level of apoptosis was expressed as a red pixel number counted by Adobe® Photoshop®.
Briefly, APOPercentage™ was used as a mean to quantify induced apoptosis and the effect of Fasudil on cell survival during pRBC/HLEC co-incubations by quantitatively assessing the […] of purple red dye by apoptotic HLEC using Analytical Digital Photomicroscopy (ADP). […]

Experiment [4] relates to NF-kappaB nuclear translocation in HLEC. Kind of experiment: NF-kappaB P65 nuclear translocation (endothelial activation) in pRBC-exposed HLEC. The note with it: Fasudil 30 μM added concomitantly with pRBC, 6 hours, P<0.005 (FIG. 8). The class given is cell-based, human. As for the experimental part: Briefly, HLEC were cultured in 8-chambers Labtek plates and exposed to pRBC during 6 hours at 1% of hematocrit and 50% of parasitemia. Rho-kinase inhibitor Fasudil was added concomitantly with pRBC at 30 μM. TNFβ at 20 ng/ml was used as a positive control of NF-kappaB nuclear translocation. Cells were then fixed and permeabilized for immunostaining with primary anti-NF-kappaB P65 subunit antibody and secondary FITC-anti-mouse IgG antibody. Nuclei were stained with diamidino-phenylindole (DAPI). After immunostaining of NF-kappaB P65 subunit, results were analysed by fluorescence microscopy and the number of activated HLEC (cells with complete but not partial migration nuclear P65 staining) per each condition (n=4) was counted (FIG. 8).

Peptide text beside a SMILES is read from it. * marks the point of attachment. Cbz = O=C(OCc1ccccc1)*; CH2F = FC*

Consider `COC(=O)C[C@H](NC(=O)[C@H](C)NC(=O)[C@@H](NC(=O)OCc1ccccc1)C(C)C)C(=O)CF` [z-vad, Z-VAD-fmk] (Cbz-Val-Ala-Asp(OMe)-CH2F), for which the “quantity of Evans Blue in the lower compartment (OD 630 nm)” value in experiment [1] (pRBC/HLEC co-incubation in the presence of z-vad 10 μM or 100 μM (FIG. 5)) is “significantly reduced”.

With `O=S(=O)(c1cccc2cnccc12)N1CCCNCC1` [Fasudil], the “activated RhoA concentration ([Rho-GTP], OD 490 nm)” value in experiment [2] was “significant decrease”. Moreover, in experiment [1] (HLEC exposed 4 hours to pRBC, then 30 μM Fasudil for 20 hours, vs HLEC and pRBC, p<0.01 (FIG. 6)), the “quantity of Evans Blue marker in lower compartment (OD 630 nm)” value was “significantly lower”. In addition, the entries for the “decrease in apoptosis of pRBC-exposed HLEC compared to non treated cells” value in experiment [3] (1 μM Fasudil) and in experiment [3] (30 μM) were 1.4 fold and 4.1 fold, respectively. The “P. falciparum-induced endothelial activation (% cells with nuclear NF-kappaB P65)” value in experiment [4] is “significantly reduces”.

These data come from US20090203678A1, “PHARMACEUTICAL COMPOSITIONS FOR THE TREATMENT OF PROTOZOAN PARASITIC DISEASES” (priority 2006, published 2009).
